Legend:
P-glycoprotein (Pgp) = biological target: T1, P-glycoprotein (Pgp) (Homo sapiens, UniProt P08183); test: Inhibition of [3H]-VBL efflux by MDCK-MDR1 cells; format: cell-based; conditions: CV-3988 10 uM, 30-min pre-exposure
T1 construct: expressed in transfected cells; host or cells: MDCK (canine kidney) cells stably transfected with human MDR1
Experimental: Inhibition of [^3H]-VBL efflux by MDCK-MDR1 cells: [^3H]-VBL was determined by scintillation counting accordingly to (Barthomeuf et al. Cancer Chemother Pharmacol 2005; 56: 173-81). […] The cells were then exposed for 120 min to 20 nM of ^3H-VBL (0.23 μCi). ^3H-VBL accumulation was stopped by washing the cells (5-fold) with cold PBS (150 mM NaCl, 2.7 mM KCl, 1.3 mM KH2PO4, 8.1 mM, Na2HPO4, pH 7.4). The cells were lysed with 0.1% Triton X-100 and the radioactivity was counted.

[1] = system: advanced colorectal cancer; conditions: 36-180 mg/day; cited from earlier work
U87 glioblastoma cells = test: Curcumin/DTX co-treatment, cell proliferation and survival; format: cell-based, human; conditions: curcumin 10 uM + DTX 1 nM, 48 h co-treatment
Experimental: (§1) Cell culture: Madine Darby canine kidney (MDCK-MDR1) cells, provided by Amanda Yancy (AstraZeneca Pharmaceuticals), were cultured in DMEM supplemented with 10% FBS as reported previously (Barthomeuf et al. 2005). Human primary fibroblasts were purchased from Biopredic International (Rennes, France). Human MCF7 (ER+breast), A549 (non small cell lung), PC3 (androgen-resistant prostate) DLD1 (colon), PA1 (ovary), MDA-mb-231 (ER-, PTEN positive), MDA-mb-468 (ER-, PTEN negative) carcinoma and U87 (glioblastoma) lines were purchased from the European Collection of Cell Cultures (ECACC,
(§2) Salibury, UK) or the American Type Culture Collection (ATCC, Manassas, Va.). Cells were cultured in modified Eagle's medium (MEM) supplemented with 10% fetal calf serum, 2 mM L-glutamine and 100 units/ml penicillin, and 100 μg/ml streptomycin (Barthomeuf et al. 2002) or MEM supplemented with 1 mM sodium pyruvate and containing 10% FBS and antibiotics (U-87). […]
(§3) The drugs were administered in DMSO 0.5%. Cell proliferation and attachment to the matrix were determined by measuring the amount of resazurin reduced by esterases from living cells (RTT assay) and by measuring the amount of attached biomass with the DNA binding agent (Ho 33342). Fluorescence was assayed at 590/630 nm (RTT assay) or 360/460 nm (Ho assay) as described in (Barthomeuf et al. Planta Med 2002).

[2] = system: MDA-mb-468 breast carcinoma cells; test: Cell proliferation, resazurin reduction test (RTT assay); format: cell-based, human
Experimental: as §1
(§4) Salibury, UK) or the American Type Culture Collection (ATCC, Manassas, Va.). Cells were cultured in modified Eagle's medium (MEM) supplemented with 10% fetal calf serum, 2 mM L-glutamine and 100 units/ml penicillin, and 100 μg/ml streptomycin (Barthomeuf et al. 2002) or MEM supplemented with 1 mM sodium pyruvate and containing 10% FBS and antibiotics (U-87). The cells were cultured at 37° C. under a humidified 95%-5% (v/v) mixture of air and CO2.
as §3
(§5) The human tested lines include highly invasive U87 glioblastoma cells (SphK1 overexpression), 5 human carcinoma lines: weakly invasive MCF7 (estrogen receptor (ER) and PTEN positive) and metastatic MDA-mb-468 (ER and PTEN lack of function) breast carcinoma cells, metastatic PC3 (androgen resistant, p53 loss of function) prostate carcinoma cells, highly proliferative PA1 ovarian carcinoma cells and DLD1 (Pgp-positive) colon carcinoma cells. Primary fibroblasts were used as a model of human non-tumoral cells. Assays were conducted on exponentially growing human cells cultured overnight in MEM supplemented with 10% FBS. […] This supports a value of curcumin/DTX combination for treatment of tumors displaying these characteristics.

primary fibroblasts = test: as above; format: cell-based, human; conditions: curcumin 10 uM
Experimental: as §1, §4, §3, §5

[3] = system: PA1 ovarian carcinoma cells; test: as above; format: cell-based, human; conditions: curcumin 10 uM
Experimental: as §1, §4, §3, §5

HIF-1α = test: Western blot of HIF-1α in MCF7 cells; format: cell-based, human
Experimental: Western blot: After treatment, control and treated cells were washed with PBS, then incubated in PBS containing 1 mM of each NaF and Na3VO4 and solubilized on ice in lysis buffer [150 mM NaCl, 10 mM Tris-HCl, pH 7.4, 1 mM EDTA, 1 mM EGTA, 1 mM NaF, 1 mM Na3VO4, 0.5% (v/v) Nonidet P-40, and 1% (v/v) Triton X-100] or in FosRipa buffer (10 mM Tris/HCl pH 7.5, 250 mM NaCl, 0.1% SDS, 1% Nonidet P40, 1% sodium deoxycholate). […] Protein concentrations and Western blotting was performed according to standard procedures. […] Mouse monoclonal antisera directed against HIF-1α or survivin were used as primary antibodies and horseradish peroxidase-coupled anti-mouse (Dako) as secondary antibodies.
Then HIF-1α was assessed by Western blotting.

[4] = system: panel of cancer lines issued from human solid tumors; test: Antiproliferative effect on a panel of cancer lines, resazurin reduction test; format: cell-based; conditions: curcumin 10 uM
Experimental: as §1, §2
as §3, with “2002). […]” for “2002).”

PAF synthesis = test: PAF synthesis, incorporation of [3H]-acetate into lyso-PAF in MDCK-MDR1 cells; format: cell-based, canine; conditions: curcumin 30 min, doses observable in man
Experimental: PAF synthesis: PAF synthesis was measured by incorporation of [^3H]-acetate into lyso-PAF accordingly to the protocol described in (Bernatchez PN et al. Br. J. Pharmacol. 2001 134: 1252-1262 and Barthomeuf C. et al. Free Rad Biol Med 2006, 40: 581-590). […] The reaction was stopped by addition of acidified methanol. Polar lipids were isolated according to Bligh and Dyer. After solvent evaporation under N2, ^3H-PAF was purified by HPLC on silica gel, and quantified by radioactivity counting vs authentic ^3H-PAF.

survivin = test: Western blot of survivin in MCF7 cells; format: cell-based, human; conditions: MCF7, DTX at clinical doses
Experimental: Western blot: After treatment, control and treated cells were washed with PBS, then incubated in PBS containing 1 mM of each NaF and Na3VO4 and solubilized on ice in lysis buffer [150 mM NaCl, 10 mM Tris-HCl, pH 7.4, 1 mM EDTA, 1 mM EGTA, 1 mM NaF, 1 mM Na3VO4, 0.5% (v/v) Nonidet P-40, and 1% (v/v) Triton X-100] or in FosRipa buffer (10 mM Tris/HCl pH 7.5, 250 mM NaCl, 0.1% SDS, 1% Nonidet P40, 1% sodium deoxycholate). When needed insoluble pellets were solubilized in Laemmli samples buffer (62.5 mM Tris-HCl pH 6.8, 2.4% SDS, 100 mM DDT, 10% glycerol, 1 mM EDTA, 0.001% bromphenol blue), heated for 5 min at 96° C. and centrifuged briefly before loading. Protein concentrations and Western blotting was performed according to standard procedures. Equal amounts of protein (50 μg) were loaded for separation via 7.5% SDS-PAGE. Mouse monoclonal antisera directed against HIF-1α or survivin were used as primary antibodies and horseradish peroxidase-coupled anti-mouse (Dako) as secondary antibodies.

MCF7 cells = test: MCF7 cell survival, Ho assay; format: cell-based, human; conditions: DTX 5 uM (clinical dose), 72 h, P<0.01
Experimental: as §3
Treatment by DTX at clinical dose contributes to induction of drug resistance. […] We finally examined the effect of DTX on MCF7 cell survival and HIF-1 transcription. In this aim, DTX was tested at 2 concentrations 1 nM and 5 uM (a concentration representative of blood levels after DTX administration, Investigator Brochure 2002). Al tests were carried out on highly proliferative cells cultured in MEM medium supplemented with 10% FBS. Survival was assayed with the Ho assay after 6 h and 72 h.

[5] = DTX treatment alone; cited from earlier work

T1 sequence (P08183 whole entry): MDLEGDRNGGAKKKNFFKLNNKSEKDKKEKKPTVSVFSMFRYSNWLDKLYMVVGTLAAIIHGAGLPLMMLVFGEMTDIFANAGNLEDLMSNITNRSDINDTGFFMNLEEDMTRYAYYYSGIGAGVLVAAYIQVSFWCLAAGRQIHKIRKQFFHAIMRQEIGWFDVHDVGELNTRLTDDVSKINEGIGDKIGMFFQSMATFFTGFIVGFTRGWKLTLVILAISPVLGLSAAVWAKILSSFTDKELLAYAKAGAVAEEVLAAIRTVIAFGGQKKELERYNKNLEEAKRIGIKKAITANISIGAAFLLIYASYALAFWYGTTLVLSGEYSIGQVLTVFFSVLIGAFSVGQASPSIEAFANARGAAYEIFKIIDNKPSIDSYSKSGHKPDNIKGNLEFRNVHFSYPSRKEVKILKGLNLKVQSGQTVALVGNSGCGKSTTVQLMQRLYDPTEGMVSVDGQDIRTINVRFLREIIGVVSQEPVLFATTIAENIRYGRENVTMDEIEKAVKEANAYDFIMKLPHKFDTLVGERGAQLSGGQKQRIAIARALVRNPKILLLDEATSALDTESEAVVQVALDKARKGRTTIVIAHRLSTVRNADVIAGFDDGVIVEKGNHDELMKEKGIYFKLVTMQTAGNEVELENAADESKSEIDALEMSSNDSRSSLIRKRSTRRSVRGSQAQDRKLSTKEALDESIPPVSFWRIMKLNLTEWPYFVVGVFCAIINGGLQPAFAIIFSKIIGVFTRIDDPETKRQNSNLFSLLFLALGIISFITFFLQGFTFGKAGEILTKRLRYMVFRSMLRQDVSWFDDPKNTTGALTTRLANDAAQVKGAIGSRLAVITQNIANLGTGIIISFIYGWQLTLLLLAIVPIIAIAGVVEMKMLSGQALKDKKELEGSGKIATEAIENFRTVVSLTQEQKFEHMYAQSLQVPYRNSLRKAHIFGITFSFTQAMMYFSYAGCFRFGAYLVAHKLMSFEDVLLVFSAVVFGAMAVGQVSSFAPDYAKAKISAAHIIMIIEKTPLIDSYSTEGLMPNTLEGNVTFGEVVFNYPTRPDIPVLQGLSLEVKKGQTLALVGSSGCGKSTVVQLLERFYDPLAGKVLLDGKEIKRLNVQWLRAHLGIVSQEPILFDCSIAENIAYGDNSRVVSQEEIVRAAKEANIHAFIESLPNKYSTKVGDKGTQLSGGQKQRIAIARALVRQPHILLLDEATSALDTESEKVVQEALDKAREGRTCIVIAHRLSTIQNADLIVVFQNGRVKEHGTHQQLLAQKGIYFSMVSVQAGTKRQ

With `CCCCCCCCCCCCCCCCCCNC(=O)OCC(COP(=O)([O-])OCC[n+]1ccsc1)OC` (stereo not drawn) [CV-3988] the “(3H)-VBL accumulation in MDCK-MDR1 cells” value (P-glycoprotein (Pgp)) was “promotes (^3H)-VBL accumulation”.

For `COc1cc(/C=C/C(=O)CC(=O)/C=C/c2ccc(O)c(OC)c2)ccc1O` [curcumin, (1E,6E)-1,7-bis (4-hydroxy-3-methoxyphenyl)-1,6-heptadiene-3,5-dione], the “stabilisation, patients” value [1] is given as 5/15, the “effect of co-treatment on DTX efficacy” value (U87 glioblastoma cells) is given as “enhances in a synergistic manner DTX efficacy” and the proliferation decreased ([2]; curcumin 10 uM) is given as 23%. For the same molecule, the “effect of co-treatment on DTX efficacy” value ([2]; curcumin 10 uM + DTX 1 nM, 48 h co-treatment) was “enhances in a synergistic manner DTX efficacy”, the “toxicity for primary fibroblasts” value (primary fibroblasts) was “without significant toxicity” and the “proliferation of PA1 cells” value [3] was “suppressed”. The “HIF-1α level after curcumin post-treatment” value (HIF-1α; MCF7, DTX 5 uM 72 h, then 6 h EGF 10 ng/mL + MG-132 with or without curcumin 10 uM) was “lower amount of HIF-1α”, the “growth of all tested tumor lines” value [4] was “strongly impairs the growth” and the PAF synthesis (PAF synthesis) was “down-regulation of PAF synthesis”.

With `CC(=O)O[C@@]12CO[C@@H]1C[C@H](O)[C@@]1(C)C(=O)[C@H](O)C3=C(C)[C@@H](OC(=O)[C@H](O)[C@@H](NC(=O)OC(C)(C)C)c4ccccc4)C[C@@](O)([C@@H](OC(=O)c4ccccc4)[C@H]21)C3(C)C` [DTX, (2R,3S)-N-carboxy-3-phenylisoserine, N-tert-butyl ester, 13-ester with 5, 20-epoxy-1,2,4,7, 10, 13-hexahydroxytax-11-en-9-one 4-acetate 2-benzoate, trihydrate] the “survivin expression in surviving cells vs control” value (survivin) was “higher amount of survivin than control cells”, the “HIF-1α in resistant sub-populations vs control” value (HIF-1α; MCF7, DTX at clinical doses) was “higher amounts of HIF-1α than control cells” and the “HIF-1α in resistant sub-populations vs control” value (HIF-1α; MCF7, DTX at low concentration) was “less HIF-1α than control cells”. For the same molecule, the MCF7 survival decreased (MCF7 cells) was 92% and the “number of objective responses usually observed” value [5] was “around 50%”.

— US20140128337A1, “Curcuminoids in Combination Docetaxel for the Treatment of Cancer and Tumour Metastasis” (Institut National de la Sante et de la Recherche Medicale …, priority 2009, published 2014)
